Reference: patent US20110152267A1, “Compositions and Methods for Treating Hyperproliferative Disorders” (Texas Tech University System, priority 2009, published 2011)

How the values were obtained:
Format in all cases: cell-based, human
Conditions in all cases: 96 h
[1] = test system: OVCAR-8 ovarian adenocarcinoma cell line; assay: DIMSCAN cytotoxicity, fenretinide + L-threo-sphinganines 3:1 (Example B15); design: key to CI (Combination Index): Chou-Talalay CI: <0.9 synergy, 0.9-1.1 additive, >1.1 antagonism
Protocol: (§1) Cytotoxicity Assay—Once again, cytotoxicity is determined using the DIMSCAN assay system (R. Proffitt et al., Cytometry 24, 204-213 (1996); T. Frgala et al., Mol Cancer Ther. 6:886-97, 2007). The system employs digital imaging microscopy to quantify viable cells, which selectively accumulate fluorescein diacetate to become brightly fluorescent. The system is capable of measuring cytotoxicity over a 4-5 log dynamic range by quenching the residual fluorescence of dead and dying cells with eosin Y and quantifying the total fluorescence of viable cells using digital thresholding. Measured fluorescence is directly proportionate to the number of viable cells. A comparison of the total fluorescence of a drug-treated cell population to the fluorescence of a similar number of untreated cells yields a survival fraction. In brief, 2000 to 10,000 cells/well (depending on size and growth rates) are replicate plated into 60 wells of a 96-well tissue culture plate in 0.1 mL of whole medium and allowed to attach overnight. Drug(s) are then added in 0.05 mL of whole medium to the final concentrations indicated. Drugs (fenretinide, and various chain length L-threo-sphinganines) were tested both as single agents and in a 3:1 ratio of fenretinide:sphinganine. C18-L-threo-sphinganine, or “safingol,” was also tested and results shown for reference. There are 12 wells treated per drug concentration. Twelve wells receive drug vehicle-only to the appropriate final concentration and serve as controls for the plate. Cells are incubated for 96 hours at 37° C. in ambient air with 5% CO2. Fluorescein diacetate is then added to each well in 0.05 mL media to a final concentration of 8 microgram/mL. Cells are incubated for a further 15 minutes at 37° C. and 0.03 mL of 0.5% eosin Y is added to each well. Total fluorescence of viable cells is then measured by digital imaging microscopy. Results were graphed as the ratio of the fluoresecence of drug-treated wells to non-drug treated control wells (i.e., Survival Fraction). All tests were performed at least twice. Representative results are shown.
(§2) The Combination Index (CI) is a term to describe mathematical modeling of the pharmacologic effects on cytotoxicity (cell death) of two drugs in combination based. Cytotoxic “synergy” is defined as a cell death affect which is greater than would be expected from a simple product of the single agent cytotoxicities alone (i.e. an “additive” effect). By Chou-Talalay analysis, a CI<0.9 on a Fraction Affected (“Fa”, i.e. fraction of cells killed) indicates synergy, with smaller numbers indicating greater synergy; a CI of 0.9-1.1 signifies an additive or near-additive effect; and a CI>1.1 means the drug combination is antagonistic.
Fenretinide and L-threo-sphinganines tested in human ovarian adenocarcinoma (ovarian cancer) cell line, OVCAR-8.

[2] = test system: A-549 lung adenocarcinoma cell line; assay: DIMSCAN cytotoxicity, fenretinide + L-threo-sphinganines 3:1 (Example B13)
Protocol: as §1, §2
Fenretinide and L-threo-sphinganines tested in human lung adenocarcinoma (lung cancer) cell line, A-549.

[3] = test system: T98G Glioblastoma multiforme cell line; assay: DIMSCAN cytotoxicity, fenretinide + L-threo-sphinganines 3:1 (Example B6)
Protocol: as §1, §2
Fenretinide and L-threo-sphinganines tested in human Glioblastoma multiforme (brain cancer) cell line, T98G.

[4] = test system: A-172 Glioblastoma multiforme cell line; assay: DIMSCAN cytotoxicity, fenretinide + L-threo-sphinganines 3:1 (Example B4); design: key to CI (Combination Index): Chou-Talalay CI: <0.9 synergy, 0.9-1.1 additive, >1.1 antagonism
Protocol: as §1, §2
Fenretinide and L-threo-sphinganines tested in human Glioblastoma multiforme (brain cancer) cell line, A-172.

[5] = test system: U-266 Multiple Myeloma cell line; assay: DIMSCAN cytotoxicity, fenretinide + L-threo-sphinganines 3:1 (Example B3)
Protocol: as §1, §2
Fenretinide and L-threo-sphinganines tested in human Multiple Myeloma (a cancer of the blood and bone marrow) cell line, U-266.

[6] = test system: HT-29 colorectal adenocarcinoma cell line; assay: DIMSCAN cytotoxicity, fenretinide + L-threo-sphinganines 3:1 (Example B10)
Protocol: as §1, §2
Fenretinide and L-threo-sphinganines tested in human colorectal adenocarcinoma (colon cancer) cell line, HT-29.

[7] = test system: SJ-G2 Glioblastoma cell line; assay: DIMSCAN cytotoxicity, fenretinide + L-threo-sphinganines 3:1 (Example B8)
Protocol: as §1, §2
Fenretinide and L-threo-sphinganines tested in human Glioblastoma (brain cancer) cell line, SJ-G2.

[8] = test system: A-2058 melanoma cell line; assay: DIMSCAN cytotoxicity, fenretinide + L-threo-sphinganines 3:1 (Example B11)
Protocol: as §1, §2
Fenretinide and L-threo-sphinganines tested in human melanoma (skin cancer) cell line, A-2058.

[9] = 4-HPR 1.5 μM + L-threo-sphinganine 0.5 μM
[10] = 4-HPR 3 μM + L-threo-sphinganine 1 μM
[11] = 4-HPR 6 μM + L-threo-sphinganine 2 μM
[12] = 4-HPR 9 μM + L-threo-sphinganine 3 μM

CCCCCCCCCCC[C@H](O)[C@@H](N)CO [C14]
CI (Combination Index) [1, 9]: 0.1 | Fa (fraction affected) [1, 9]: 0.696 | CI (Combination Index) [1, 10]: 0.1 | Fa (fraction affected) [1, 10]: 0.860 | CI (Combination Index) [1, 11]: 0.1 | Fa (fraction affected) [1, 11]: 0.978 | CI (Combination Index) [1, 12]: 0.1 | Fa (fraction affected) [1, 12]: 0.988 | CI (Combination Index) [2, 9]: 1 | Fa (fraction affected) [2, 9]: 0.01 | CI (Combination Index) [2, 10]: 1.0 | Fa (fraction affected) [2, 10]: 0.02 | CI (Combination Index) [2, 11]: 1.1 | Fa (fraction affected) [2, 11]: 0.072 | CI (Combination Index) [2, 12]: 0.5 | Fa (fraction affected) [2, 12]: 0.461 | CI (Combination Index) [3, 9]: 1.0 | Fa (fraction affected) [3, 9]: 0.544 | CI (Combination Index) [3, 10]: 1.6 | Fa (fraction affected) [3, 10]: 0.602 | CI (Combination Index) [3, 11]: 1.0 | Fa (fraction affected) [3, 11]: 0.839 | CI (Combination Index) [3, 12]: 0.5 | Fa (fraction affected) [3, 12]: 0.941 | CI (Combination Index) [4, 9]: 23.7 | Fa (fraction affected) [4, 9]: 0.001 | CI (Combination Index) [4, 10]: 3.8 | Fa (fraction affected) [4, 10]: 0.065 | CI (Combination Index) [4, 11]: 1.0 | Fa (fraction affected) [4, 11]: 0.717 | CI (Combination Index) [4, 12]: 0.5 | Fa (fraction affected) [4, 12]: 0.958 | CI (Combination Index) [5, 9]: 0.9 | Fa (fraction affected) [5, 9]: 0.163 | CI (Combination Index) [5, 10]: 1.1 | Fa (fraction affected) [5, 10]: 0.315 | CI (Combination Index) [5, 11]: 1.0 | Fa (fraction affected) [5, 11]: 0.687 | CI (Combination Index) [5, 12]: 1.3 | Fa (fraction affected) [5, 12]: 0.76 | CI (Combination Index) [6, 9]: 1.0 | Fa (fraction affected) [6, 9]: 0.215 | CI (Combination Index) [6, 10]: 1.3 | Fa (fraction affected) [6, 10]: 0.598 | CI (Combination Index) [6, 11]: 1.8 | Fa (fraction affected) [6, 11]: 0.822 | CI (Combination Index) [6, 12]: 1.4 | Fa (fraction affected) [6, 12]: 0.982 | CI (Combination Index) [7, 9]: 1.3 | Fa (fraction affected) [7, 9]: 0.103 | CI (Combination Index) [7, 10]: 1.3 | Fa (fraction affected) [7, 10]: 0.307 | CI (Combination Index) [7, 11]: 1.4 | Fa (fraction affected) [7, 11]: 0.575 | CI (Combination Index) [7, 12]: 1.0 | Fa (fraction affected) [7, 12]: 0.845 | CI (Combination Index) [8, 9]: 1.1 | Fa (fraction affected) [8, 9]: 0.045 | CI (Combination Index) [8, 10]: 1.2 | Fa (fraction affected) [8, 10]: 0.088 | CI (Combination Index) [8, 11]: 1.4 | Fa (fraction affected) [8, 11]: 0.193 | CI (Combination Index) [8, 12]: 1.3 | Fa (fraction affected) [8, 12]: 0.650
